{"source": "patent US10806711B2", "about": "(priority 2011, dated 2020)", "key": {"[1]": {"tested_on": "mice with and without I/R injury", "settings": "mouse, in vivo, po, 6.33 mg/kg/day", "procedure": "The hearts were removed, rinsed with PBS, fixed with 3.7% buffered formaldehyde (after 30 minutes the buffer was changed) and dehydrated (hearts were placed in 70% ethanol after 18-24 hours). The samples were embedded in paraffin, sectioned into thicknesses of 6 μm, each 10 μm apart, and 2 heart sections were placed onto each slide. The slides were prepared using the in situ apoptosis detection kit, CardioTACS (Trevigen, Gaithersburg, Md.) according to the manufacturer's instructions. After staining, the slides were placed on a microscope (Olympus 1×71) and the number of apoptotic cells was counted by two separate and blinded readers in 5 fields of view for each heart section. The total number of cells was also determined for the same field, and the apoptotic cells were calculated to be a percentage of the total cells.\nThe water was changed twice a week and the volume was measured before and after consumption to determine the approximate dose. The mice were housed 2 to a cage for a more accurate assessment of total dose administered."}, "TRPV2^−/− mice": {"tested_on": "TRPV2^−/− mice", "test": "Contractility by echo after IP probenecid in TRPV2−/− mice", "assay_type": "in vivo, mouse", "settings": "100 mg/kg IP", "procedure": "WT, TRPV2^+/−, and TRPV2^−/− mice were monitored by echo for 30 minutes after injection as described below. Echocardiography—All echocardiographic studies were performed with a Vevo 2100 Ultrasound system (Visualsonics, Toronto Calif.) with an MS400 probe (30 MHz centerline frequency) and were post-processed at a separate workstation with Vevostrain software (Vevo 2100, v1.1.1 B1455, Visualsonic, Toronto, Canada). Images were obtained from PSLAX and short axis (SAX) views at depths between 2 and 10 mm in both M-mode and B-mode. All studies on mice exposed to I/R injury included M-mode, B-mode in PSLAX and strain imaging in SAX. While for the contractility studies, only M-mode measurements were obtained from the PSLAX. Strain imaging was performed from the B-mode images and regional radial strain and circumferential displacement were measured by regional wall and summed average from the SAX images. From the M-mode images, left ventricular cavity size and wall thickness was measured and the ejection fraction (EF) and fractional shortening (FS) calculations were obtained using the Vevo software. […] In addition, the average change from baseline for each time point between 5 and 30 minutes was determined for each mouse, with measurements being taken every 5 minutes. […]"}, "HL-1 cells": {"tested_on": "HL-1 cells", "test": "Imaging and measurement of Ca2+ fluorescence in HL-1 cells", "assay_type": "cell-based", "procedure": "Imaging and measurement of Ca2+ fluorescence.—HL-1 cells were obtained as described above. Dissociated cells were plated on glass cover-slip (GG-25-polylysine #1, Neuvitro, Calif.) placed inside each well of six-well plates (BD Falcon). Acquisition of images were done at 40-65 Hz by using LSM 510 Meta system equipped with the inverted Axiovert 200 M BP (Carl Zeiss Microscopy, LLC, Thornwood, N.Y.) and LSMS Software. Image acquisition was done with Plan-Apochromat 40×/water with frame size of 512 (X) and 256(Y). To optimize the speed of acquisition, the acquisition area was limited to a few cells. […] Peak fluorescence before perfusion (F0) and that after perfusion (F) were determined manually after acquisition of images from the saved LSM files. Circular areas within the cytosol of each cell of the saved images over the entire duration of respective experiments were used to determine changes in fluorescence before and after perfusion. Normalized fluorescence, determined as a quotient of F/F0, was used as a variable to compare the relative changes in fluorescence at different incremental concentrations during statistical analyses. […]"}, "[2]": {"tested_on": "isolated ventricular myocytes", "test": "Whole-cell patch clamp Ca2+ current recording", "assay_type": "cell-based, mouse", "settings": "myocytes held at −70 mV, 0.1 μM", "procedure": "Electrophysiological recordings—Isolated myocytes were perfused with a Na^+- and K^+-free solution containing (mM): tetraethylammonium chloride (TEA-Cl) 137, CsCl 5.4, CaCl2 2, MgCl2 1, HEPES 5, glucose 10 and 4-aminopyridine 3 (pH=7.4). Whole-cell patch clamp recordings were performed with an Axopatch-1B amplifier. For Ca^2+ current recordings, glass pipettes were filled with solution containing (mM): aspartic acid 115, CsOH 115, CsCl 20, EGTA 11, HEPES 10, MgCl2 2.5, Na-GTP 0.1, Mg-ATP 2 (pH adjusted to 7.2 with CsOH). Probenecid was dissolved in a Na^+- and K^+-free solution which was used to perfuse the myocytes. Data were collected using pCLAMP9 software through an Axon Digidata 1322A data acquisition system. All experiments were performed at room temperature (24° C.)."}, "[3]": {"tested_on": "Langendorff perfused hearts of WT mice", "test": "Ex vivo (Langendorff) perfused isolated heart", "set-up": "species or system mouse", "settings": "10^−6 M perfusion", "procedure": "Ex vivo (Langendorff) studies—Isolated heart experiments were performed as previously described on WT mice. […] Measurements were taken every second."}, "mice after I/R injury": {"tested_on": "mice after I/R injury", "test": "Ischemia/Reperfusion followed by probenecid bolus (echocardiography)", "assay_type": "in vivo, mouse", "procedure": "Ischemia/Reperfusion methods—Mice were anesthetized with sodium pentobarbital and the heart exposed through a left thoracotomy at the level of the fourth intercostal space. The mice were intubated and placed on a mini-ventilator (Harvard apparatus, Holliston, Mass.). A loop occluder was placed around the left anterior descending artery (LAD), and tightened, occluding it for either 30 minutes or 45 minutes. After surgery, the thorocotomy was sutured in layers, and the animal was allowed to recover. Echocardiography methods—All echocardiographic studies were performed as previously described for Example 1. […] The mice were imaged at 5 minute intervals for a total of 30 minutes."}, "[4]": {"tested_on": "subjects with uncomplicated congestive heart failure", "settings": "2 g/day or 4 g/day orally over several days; cited from earlier work"}}, "note": "Entries after “also recorded” stand apart in the source; their conditions may differ.", "data": [{"compound": "CCCN(CCC)S(=O)(=O)c1ccc(C(=O)O)cc1", "note": "[probenecid]", "values": [{"measurement": "apoptosis in healthy mice", "setting": "[1]", "result": "did not induce significant apoptosis"}, {"measurement": "cardiac response (contractility) during 30 minutes of echocardiogram", "setting": "TRPV2^−/− mice", "result": "no discernable cardiac response; also recorded: absolutely no change in function"}, {"measurement": "median peak cytosolic fluorescence after vs before perfusion", "setting": "HL-1 cells; higher probenecid concentrations (up to 10^−4)", "result": "significantly higher"}, {"measurement": "median peak cytosolic fluorescence before vs after perfusion", "setting": "HL-1 cells; probenecid 10^−8", "result": "No significant differences"}, {"measurement": "inward Ca2+ current", "setting": "[2]", "result": "No measurable inward Ca^2+ current was detected"}, {"measurement": "change in average +dP/dt over time", "setting": "[3]; paced 400 bpm", "result": "statistically significant from 90 to 210 seconds; also recorded: significantly different from baseline"}, {"measurement": "relaxation (−dP/dt)", "setting": "[3]; increased from 1812±158, P<0.01", "result": "2309±133"}, {"measurement": "EF after I/R injury", "setting": "mice after I/R injury; 100 mg/kg IP bolus, all treated mice", "result": "statistically significant increase in EF"}, {"measurement": "change in EF at peak effect", "setting": "mice after I/R injury; 100 mg/kg IP, 10 minutes, mice with initial EF 50-60%", "result": "19.72±4.10", "unit": "%"}, {"measurement": "time of peak effect on EF", "setting": "mice after I/R injury; 100 mg/kg IP, mice with initial EF 50-60%", "result": 10, "unit": "min"}, {"measurement": "contractility over time", "setting": "mice after I/R injury; 100 mg/kg IP, mice with lower initial EFs (40-50%)", "result": "continued to enhance contractility throughout the full 30-minute experiment"}, {"measurement": "diuretic effect", "setting": "[4]", "result": "strong diuretic effect"}]}]}
